molecular target: T1, PD-1/PD-L1 (Homo sapiens, UniProt Q9NZQ7); experiment: PD-1/PD-L1 Homogenous Time-Resolved Fluorescence (HTRF) binding assay; details: 10 min incubation
T1 construct: TVMV protease site linker (C); made in house; host or cells: HEK293T cells
T1 sequence (Q9NZQ7 18-239): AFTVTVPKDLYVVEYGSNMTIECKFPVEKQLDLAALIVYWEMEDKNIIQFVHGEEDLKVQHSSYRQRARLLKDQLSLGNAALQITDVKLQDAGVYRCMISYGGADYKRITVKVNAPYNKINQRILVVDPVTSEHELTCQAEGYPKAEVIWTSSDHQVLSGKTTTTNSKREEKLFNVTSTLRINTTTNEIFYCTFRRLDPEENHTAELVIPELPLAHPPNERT

Row | Structure (SMILES) | IC50 [nM]
1 | CCCC[C@H]1C(=O)N(C)[C@@H](CCCC)C(=O)N[C@@H](CC(C)C)C(=O)N[C@H](C(=O)NCC(=O)N[C@@H](Cc2cn(CCOCCOCCOCCOCCOCCOCCOCCOCCOCCOCCOCCNC(=O)CC[C@H](NC(=O)CCCCCCCCCCCCCCCCC(=O)O)C(=O)O)nn2)C(=O)O)CSCC(=O)N[C@@H](Cc2ccc(O)cc2)C(=O)N(C)[C@@H](C)C(=O)N[C@@H](CC(N)=O)C(=O)N2CCC[C@H]2C(=O)N[C@@H](CNC(=O)CC[C@@H](C)[C@H]2CC[C@H]3[C@@H]4[C@H](O)C[C@@H]5C[C@H](O)CC[C@]5(C)[C@H]4C[C@H](O)[C@]23C)C(=O)N[C@@H](CC(C)C)C(=O)N2C[C@H](O)C[C@H]2C(=O)N[C@@H](Cc2c[nH]c3ccccc23)C(=O)N[C@@H](CCN)C(=O)N[C@@H](Cc2cn(CC(=O)O)c3ccccc23)C(=O)N1C [Example 1006] | 28

same assay, conditions: PD-L1-His (10 nM) pre-incubated with inhibitor 15 m, then PD-1-Ig (20 nM)

Row | Structure (SMILES) | IC50 [nM]
2 | CCCC[C@H]1C(=O)N(C)[C@@H](CCCC)C(=O)N[C@@H](CC(C)C)C(=O)N[C@H](C(=O)NCC(=O)N[C@@H](Cc2cn(CCOCCOCCOCCOCCOCCOCCOCCOCCOCCOCCOCCNC(=O)CC[C@H](NC(=O)CCCCCCCCCCCCCCCCC(=O)OC)C(=O)OC)nn2)C(=O)OC)CSCC(=O)N[C@@H](Cc2ccc(O)cc2)C(=O)N(C)[C@@H](C)C(=O)N[C@@H](CC(N)=O)C(=O)N2CCC[C@H]2C(=O)N[C@@H](CNC(=O)OC(C)(C)C)C(=O)N[C@@H](CC(C)C)C(=O)N2C[C@H](O)C[C@H]2C(=O)N[C@@H](Cc2c[nH]c3ccccc23)C(=O)N[C@@H](CCNC(=O)OC(C)(C)C)C(=O)N[C@@H](Cc2cn(CC(=O)OC)c3ccccc23)C(=O)N1C [Example 2001] | 170
3 | CCCC[C@H]1C(=O)N(C)[C@@H](CCCC)C(=O)N[C@@H](CC(C)C)C(=O)N[C@H](C(=O)NCC(=O)N[C@@H](Cc2cn(CCOCCOCCOCCOCCOCCOCCOCCOCCOCCOCCOCCNC(=O)CC[C@H](NC(=O)CCCCCCCCCCCCCCCCC(=O)OC)C(=O)O)nn2)C(=O)O)CSCC(=O)N[C@@H](Cc2ccc(O)cc2)C(=O)N(C)[C@@H](C)C(=O)N[C@@H](CC(N)=O)C(=O)N2CCC[C@H]2C(=O)N[C@@H](CNC(=O)OCc2oc(=O)oc2C)C(=O)N[C@@H](CC(C)C)C(=O)N2C[C@H](O)C[C@H]2C(=O)N[C@@H](Cc2c[nH]c3ccccc23)C(=O)N[C@@H](CCN)C(=O)N[C@@H](Cc2cn(CC(=O)O)c3ccccc23)C(=O)N1C [Example 7003] | 7.4
4 | CCCC[C@H]1C(=O)N(C)[C@@H](CCCC)C(=O)N[C@@H](CC(C)C)C(=O)N[C@H](C(=O)NCC(=O)N[C@@H](Cc2cn(CCOCCOCCOCCOCCOCCOCCOCCOCCOCCOCCOCCNC(=O)CC[C@H](NC(=O)CCCCCCCCCCCCCCCCC(=O)O)C(=O)O)nn2)C(=O)O)CSCC(=O)N[C@@H](Cc2ccc(O)cc2)C(=O)N(C)[C@@H](C)C(=O)N[C@@H](CC(N)=O)C(=O)N2CCC[C@H]2C(=O)N[C@@H](CNC(=O)OCc2oc(=O)oc2C)C(=O)N[C@@H](CC(C)C)C(=O)N2C[C@H](O)C[C@H]2C(=O)N[C@@H](Cc2c[nH]c3ccccc23)C(=O)N[C@@H](CCNC(=O)OC)C(=O)N[C@@H](Cc2cn(CC(=O)O)c3ccccc23)C(=O)N1C [Example 7006] | 43

Continued, values first:

Row | IC50 [nM] | Structure (SMILES)
5 | 53 | CCCC[C@H]1C(=O)N(C)[C@@H](CCCC)C(=O)N[C@@H](CC(C)C)C(=O)N[C@H](C(=O)NCC(=O)N[C@@H](Cc2cn(CCOCCOCCOCCOCCOCCOCCOCCOCCOCCOCCOCCNC(=O)CC[C@H](NC(=O)CCCCCCCCCCCCCCCCC(=O)OC)C(=O)O)nn2)C(=O)O)CSCC(=O)N[C@@H](Cc2ccc(O)cc2)C(=O)N(C)[C@@H](C)C(=O)N[C@@H](CC(N)=O)C(=O)N2CCC[C@H]2C(=O)N[C@@H](CNC(=O)OCC)C(=O)N[C@@H](CC(C)C)C(=O)N2C[C@H](O)C[C@H]2C(=O)N[C@@H](Cc2c[nH]c3ccccc23)C(=O)N[C@@H](CCN)C(=O)N[C@@H](Cc2cn(CC(=O)O)c3ccccc23)C(=O)N1C [Example 7001]
6 | 6.8 | CCCC[C@H]1C(=O)N(C)[C@@H](CCCC)C(=O)N[C@@H](CC(C)C)C(=O)N[C@H](C(=O)NCC(=O)N[C@@H](Cc2cn(CCOCCOCCOCCOCCOCCOCCOCCOCCOCCOCCOCCNC(=O)CC[C@H](NC(=O)CCCCCCCCCCCCCCCCC(=O)O)C(=O)O)nn2)C(=O)O)CSCC(=O)N[C@@H](Cc2ccc(O)cc2)C(=O)N(C)[C@@H](C)C(=O)N[C@@H](CC(N)=O)C(=O)N2CCC[C@H]2C(=O)N[C@@H](CNC(=O)OCc2oc(=O)oc2C)C(=O)N[C@@H](CC(C)C)C(=O)N2C[C@H](O)C[C@H]2C(=O)N[C@@H](Cc2c[nH]c3ccccc23)C(=O)N[C@@H](CCNC(=O)CCc2oc(=O)oc2C)C(=O)N[C@@H](CC2=CC(CC(=O)O)c3ccccc32)C(=O)N1C (stereo partly drawn) [Example 1022]
7 | 12 | CCCC[C@H]1C(=O)N(C)[C@@H](CCCC)C(=O)N[C@@H](CC(C)C)C(=O)N[C@H](C(=O)NCC(=O)N[C@@H](Cc2cn(CCOCCOCCOCCOCCOCCOCCOCCOCCOCCOCCOCCNC(=O)CC[C@H](NC(=O)CCCCCCCCCCCCCCCCC(=O)O)C(=O)O)nn2)C(=O)OCC)CSCC(=O)N[C@@H](Cc2ccc(O)cc2)C(=O)N(C)[C@@H](C)C(=O)N[C@@H](CC(N)=O)C(=O)N2CCC[C@H]2C(=O)N[C@@H](CN)C(=O)N[C@@H](CC(C)C)C(=O)N2C[C@H](O)C[C@H]2C(=O)N[C@@H](Cc2c[nH]c3ccccc23)C(=O)N[C@@H](CCN)C(=O)N[C@@H](CC2=CC(CC(=O)O)c3ccccc32)C(=O)N1C (stereo partly drawn) [Example 1025]
8 | 12 | CCCC[C@H]1C(=O)N(C)[C@@H](CCCC)C(=O)N[C@@H](CC(C)C)C(=O)N[C@H](C(=O)NCC(=O)N[C@@H](Cc2cn(CCOCCOCCOCCOCCOCCOCCOCCOCCOCCOCCOCCNC(=O)CC[C@H](NC(=O)CCCCCCCCCCCCCCCCC(=O)O)C(=O)O)nn2)C(=O)OC)CSCC(=O)N[C@@H](Cc2ccc(O)cc2)C(=O)N(C)[C@@H](C)C(=O)N[C@@H](CC(N)=O)C(=O)N2CCC[C@H]2C(=O)N[C@@H](CN)C(=O)N[C@@H](CC(C)C)C(=O)N2C[C@H](O)C[C@H]2C(=O)N[C@@H](Cc2c[nH]c3ccccc23)C(=O)N[C@@H](CCN)C(=O)N[C@@H](Cc2cn(CC(=O)OC)c3ccccc23)C(=O)N1C [Example 3002]
9 | 12 | CCCC[C@H]1C(=O)N(C)[C@@H](CCCC)C(=O)N[C@@H](CC(C)C)C(=O)N[C@H](C(=O)NCC(=O)N[C@@H](Cc2cn(CCOCCOCCOCCOCCOCCOCCOCCOCCOCCOCCOCCNC(=O)CC[C@H](NC(=O)CCCCCCCCCCCCCCCCC(=O)O)C(=O)O)nn2)C(=O)O)CSCC(=O)N[C@@H](Cc2ccc(O)cc2)C(=O)N(C)[C@@H](C)C(=O)N[C@@H](CC(N)=O)C(=O)N2CCC[C@H]2C(=O)N[C@@H](CNC(=O)OCC)C(=O)N[C@@H](CC(C)C)C(=O)N2C[C@H](O)C[C@H]2C(=O)N[C@@H](Cc2c[nH]c3ccccc23)C(=O)N[C@@H](CCN)C(=O)N[C@@H](CC2=CC(CC(=O)O)c3ccccc32)C(=O)N1C (stereo partly drawn) [Example 1009]

— patent US20240261367A1, “CYCLIC PEPTIDE IMMUNOMODULATORS” (priority 2021, published 2024)
